According to patent US9862704B2, “Oxindole derivatives carrying an amine-substituted piperidyl-acetidinyl substituent and use thereof for treating vasopressine-related diseases” (AbbVie Deutschland GmbH & Co. KG, priority 2013, dated 2018):

Assays:
[1] = molecular target: human vasopressin V1a receptor (Homo sapiens, UniProt P37288); experiment: Vasopressin V1a receptor binding assay; conditions: selectivity quotient, human V1a vs human V1b
[2] = molecular target: T1, human vasopressin V1b receptor (Homo sapiens, UniProt P47901); experiment: biochemical
T1 sequence (P47901 1-424): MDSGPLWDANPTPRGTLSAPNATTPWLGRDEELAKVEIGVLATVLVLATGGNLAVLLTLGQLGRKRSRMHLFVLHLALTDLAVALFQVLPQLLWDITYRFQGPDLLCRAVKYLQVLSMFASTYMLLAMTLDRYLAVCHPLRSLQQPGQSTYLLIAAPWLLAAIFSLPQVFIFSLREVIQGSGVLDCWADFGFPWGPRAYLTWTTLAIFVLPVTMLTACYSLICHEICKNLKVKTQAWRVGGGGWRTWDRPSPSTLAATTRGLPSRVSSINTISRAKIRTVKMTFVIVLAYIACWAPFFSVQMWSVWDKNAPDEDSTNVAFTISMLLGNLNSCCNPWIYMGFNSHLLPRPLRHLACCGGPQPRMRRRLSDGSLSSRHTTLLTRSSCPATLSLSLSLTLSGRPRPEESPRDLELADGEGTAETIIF

human vasopressin V1a receptor, sequence (P37288 whole entry): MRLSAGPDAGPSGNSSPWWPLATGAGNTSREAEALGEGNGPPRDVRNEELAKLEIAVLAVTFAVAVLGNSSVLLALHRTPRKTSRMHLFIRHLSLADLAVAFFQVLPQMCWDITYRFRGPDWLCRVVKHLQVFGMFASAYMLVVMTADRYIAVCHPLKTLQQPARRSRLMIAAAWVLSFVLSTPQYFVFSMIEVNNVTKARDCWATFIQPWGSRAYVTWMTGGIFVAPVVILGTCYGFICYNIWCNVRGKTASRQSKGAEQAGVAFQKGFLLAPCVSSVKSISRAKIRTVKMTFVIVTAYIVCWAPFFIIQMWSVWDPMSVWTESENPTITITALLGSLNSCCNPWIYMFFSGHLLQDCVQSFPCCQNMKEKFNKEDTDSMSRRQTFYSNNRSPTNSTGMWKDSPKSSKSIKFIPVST

SMILES	Ki(hV1a)/Ki(hV1b) [1]	Ki [2] [nM]
CCOc1ncccc1[C@]1(NC(=O)N2CC(N3CCC(N4CCCCC4)CC3)C2)C(=O)N(S(=O)(=O)c2ccc(OC)cc2OC)c2ccc(C#N)cc21 [Example 1, N-[(3S)-5-cyano-1-(2,4-dimethoxyphenyl)sulfonyl-3-(2-ethoxy-3-pyridyl)-2-oxoindolin-3-yl]-3-[4-(1-piperidyl)-1-piperidyl]azetidine-1-carboxamide]	+++ (>75)	< 1
CCOc1ncccc1[C@]1(NC(=O)N2CC(N3CCC(N(C)C)CC3)C2)C(=O)N(S(=O)(=O)c2ccc(OC)cc2OC)c2ccc(C#N)cc21 [Example 2, (S)—N-(5-cyano-1-((2,4-dimethoxyphenyl)sulfonyl)-3-(2-ethoxypyridin-3-yl)-2-oxoindolin-3-yl)-3-(4-(dimethylamino)piperidin-1-yl)azetidine-1-carboxamide]	+++ (>75)	1 to 10
CCOc1ncccc1[C@]1(NC(=O)N2CC(N3CCC(N(CC)CC)CC3)C2)C(=O)N(S(=O)(=O)c2ccc(OC)cc2OC)c2ccc(C#N)cc21 [Example 3, (S)—N-(5-cyano-1-((2,4-dimethoxyphenyl)sulfonyl)-3-(2-ethoxypyridin-3-yl)-2-oxoindolin-3-yl)-3-(4-(diethylamino)piperidin-1-yl)azetidine-1-carboxamide]	+++ (>75)	1 to 10
CCOc1ncccc1[C@]1(NC(=O)N2CC(N3CCC(N4CCCC4)CC3)C2)C(=O)N(S(=O)(=O)c2ccc(OC)cc2OC)c2ccc(C#N)cc21 [Example 4, (S)—N-(5-cyano-1-((2,4-dimethoxyphenyl)sulfonyl)-3-(2-ethoxypyridin-3-yl)-2-oxoindolin-3-yl)-3-(4-(pyrrolidin-1-yl)piperidin-1-yl)azetidine-1-carboxamide]	+++ (>75)	1 to 10
COc1ccc(S(=O)(=O)N2C(=O)[C@@](NC(=O)N3CC(N4CCC(N5CCCCC5)CC4)C3)(c3cccnc3OC)c3cc(C#N)ccc32)c(OC)c1 [Example 5, (S)-3-([1,4′-bipiperidin]-1′-yl)-N-(5-cyano-1-((2,4-dimethoxyphenyl)sulfonyl)-3-(2-methoxypyridin-3-yl)-2-oxoindolin-3-yl)azetidine-1-carboxamide]	+++ (>75)	< 1
COc1ccc(S(=O)(=O)N2C(=O)[C@@](NC(=O)N3CC(N4CCC(N5CCCC5)CC4)C3)(c3cccnc3OC)c3cc(C#N)ccc32)c(OC)c1 [Example 6, (S)—N-(5-cyano-1-((2,4-dimethoxyphenyl)sulfonyl)-3-(2-methoxypyridin-3-yl)-2-oxoindolin-3-yl)-3-(4-(pyrrolidin-1-yl)piperidin-1-yl)azetidine-1-carboxamide]	+++ (>75)	1 to 10
CCOc1ncccc1[C@]1(NC(=O)N2CC(N3CCC(N4CCC4)CC3)C2)C(=O)N(S(=O)(=O)c2ccc(OC)cc2OC)c2ccc(C#N)cc21 [Example 7, (S)-3-(4-(azetidin-1-yl)piperidin-1-yl)-N-(5-cyano-1-((2,4-dimethoxyphenyl)sulfonyl)-3-(2-ethoxypyridin-3-yl)-2-oxoindolin-3-yl)azetidine-1-carboxamide]	+++ (>75)	1 to 10
CCOc1ncccc1[C@]1(NC(=O)N2CC(N3CCC(N4CCCCC4)CC3)C2)C(=O)N(S(=O)(=O)c2ccc(OC)cc2OC)c2ccc(Cl)cc21 [Example 8, (S)-3-([1,4′-bipiperidin]-1′-yl)-N-(5-chloro-1-((2,4-dimethoxyphenyl)sulfonyl)-3-(2-ethoxypyridin-3-yl)-2-oxoindolin-3-yl)azetidine-1-carboxamide]	–	< 1
CCOc1ncccc1[C@]1(NC(=O)N2CC(N3CCC(N4CCCC4)CC3)C2)C(=O)N(S(=O)(=O)c2ccc(OC)cc2OC)c2ccc(Cl)cc21 [Example 9, (S)—N-(5-chloro-1-((2,4-dimethoxyphenyl)sulfonyl)-3-(2-ethoxypyridin-3-yl)-2-oxoindolin-3-yl)-3-(4-(pyrrolidin-1-yl)piperidin-1-yl)azetidine-1-carboxamide]	–	< 1
